# Source: ChEMBL document CHEMBL5096229, “A 1,2,3-Triazole Derivative of Quinazoline Exhibits Antitumor Activity by Tethering RNF168 to SQSTM1/P62” (J Med Chem, 2022)
# The source made the active and inactive calls. No cut-off for these calls is given here.
# Tests used:
# Sequestosome-1 [1] = biological target: T1, Sequestosome-1 (Homo sapiens, UniProt Q13501); assay: Binding affinity to N-terminal P62 (1 to 335 residues) in human HCT-116 cells lysates; assay type: subcellular; settings: filed as activator
# HCT-116 [2] = assay: Induction of cell cycle arrest in human HCT-116 cells assessed as accumulation at S phase at 2 uM after 24 hrs by propidium iodide-staining based flow cytometry (reference value: 17.17 +/- 0.18%); assay type: functional
# U2OS [3] = assay: Inhibition of NHEJ-mediated double strand break repair in human U2OS cells pretreated with I-SceI for 36 hrs followed by compound addition and measured after 12 hrs; assay type: functional, cell-based; settings: dose 0.625-2.5 µM, DDE = dose-dependent effect
# [4] = Metabolic stability in human liver microsomes assessed as clearance at 0.5 uM by LC-MS analysis; assay type: ADME, Microsome
# Bacteria [5] = assay: Induction of bacteria His-tagged P62 to GST-tagged RNF168 protein-protein interaction assessed as decrease in H2A ubiquitination level
# HCT-116 [6] = assay: Induction of cell cycle arrest in human HCT-116 cells assessed as accumulation at G0/G1 phase at 1 uM after 24 hrs by propidium iodide-staining based flow cytometry (reference value: 58.01 +/- 1.77%); assay type: functional
# U2OS [7] = assay: Induction of x-ray sensitivity in human U2OS cells; assay type: functional, cell-based
# HepG2 = assay: Cytotoxicity against human HepG2 cells assessed as reduction in cell viability incubated for 72 hrs by MTS assay; assay type: functional, cell-based; settings: HepG2, 72 h
# [8] = Clearance in BALB/c mouse at 20 mg/kg; assay type: ADME, organism-based; settings: in vivo
# HCT-116 [9] = assay: Induction of cell cycle arrest in human HCT-116 cells assessed as accumulation at S phase at 5 uM after 24 hrs by propidium iodide-staining based flow cytometry (reference value: 17.17 +/- 0.18%); assay type: functional
# HCT-116 [10] = assay: Induction of cell cycle arrest in human HCT-116 cells assessed as accumulation at G0/G1 phase at 2 uM after 24 hrs by propidium iodide-staining based flow cytometry (reference value: 58.01 +/- 1.77%); assay type: functional
# Sequestosome-1 [11] = biological target: T1, Sequestosome-1; assay: Binding affinity to P62 (unknown origin) by MST assay
# A-375 = assay: Cytotoxicity against human A-375 cells assessed as reduction in cell viability incubated for 72 hrs by MTS assay; assay type: functional, cell-based; settings: A-375, 72 h
# Bacteria [12] = assay: Binding affinity to N-terminal His-tagged bacteria P62; settings: filed as activator
# [13] = Toxicity in BALB/c nude mouse assessed as diarrhea 25 mg/kg, ip after 7 days; assay type: organism-based; settings: in vivo, 168 h, time 7 day
# [14] = Cmax in BALB/c mouse at 10 mg/kg; assay type: ADME, organism-based; set-up: dose 10 mg/kg; settings: in vivo
# [15] = Toxicity in BALB/c nude mouse assessed as animal death 12.5 mg/kg, ip after 7 days; assay type: organism-based; settings: in vivo, 168 h, time 7 day
# [16] = Toxicity in BALB/c mouse assessed as diarrhea at less than 50 mg/kg, ip after 7 days; assay type: organism-based; settings: in vivo, 168 h, time 7 day
# HeLa = assay: Cytotoxicity against human HeLa cells assessed as reduction in cell viability incubated for 72 hrs by MTS assay; assay type: functional, cell-based
# Sequestosome-1 [17] = biological target: T1, Sequestosome-1; assay: Binding affinity to N-terminal P62 LB domain (unknown origin) expressed in HEK293T cells; assay type: cell-based; settings: filed as activator
# [18] = AUCt in BALB/c mouse at 20 mg/kg; assay type: ADME, organism-based; set-up: dose 20 mg/kg; settings: in vivo
# [19] = Toxicity in BALB/c nude mouse assessed as maximum tolerable dose; settings: in vivo
# HCT-116 [20] = assay: Induction of cell cycle arrest in human HCT-116 cells assessed as accumulation at G2/M phase at 2 uM after 24 hrs by propidium iodide-staining based flow cytometry (reference value: 23.25 +/- 1.38%); assay type: functional
# [21] = Toxicity in BALB/c nude mouse assessed as changes in body weight at 5 to 10 mg/kg, ip administered every 3 days upto 22 days; assay type: organism-based; settings: in vivo, 528 h, dose 5-10 mg/kg, time < 22 day
# [22] = Cytotoxicity against human MCF-10A cells assessed as reduction in cell viability incubated for 72 hrs by MTS assay; assay type: toxicity, cell-based
# [23] = Cmax in BALB/c mouse at 5 mg/kg; assay type: ADME, organism-based; set-up: dose 5 mg/kg; settings: in vivo
# [24] = biological target: T2, Androgen receptor (Homo sapiens) (UniProt P10275); assay: Inhibition of AR (unknown origin) at 10 uM
# T2 sequence (whole entry): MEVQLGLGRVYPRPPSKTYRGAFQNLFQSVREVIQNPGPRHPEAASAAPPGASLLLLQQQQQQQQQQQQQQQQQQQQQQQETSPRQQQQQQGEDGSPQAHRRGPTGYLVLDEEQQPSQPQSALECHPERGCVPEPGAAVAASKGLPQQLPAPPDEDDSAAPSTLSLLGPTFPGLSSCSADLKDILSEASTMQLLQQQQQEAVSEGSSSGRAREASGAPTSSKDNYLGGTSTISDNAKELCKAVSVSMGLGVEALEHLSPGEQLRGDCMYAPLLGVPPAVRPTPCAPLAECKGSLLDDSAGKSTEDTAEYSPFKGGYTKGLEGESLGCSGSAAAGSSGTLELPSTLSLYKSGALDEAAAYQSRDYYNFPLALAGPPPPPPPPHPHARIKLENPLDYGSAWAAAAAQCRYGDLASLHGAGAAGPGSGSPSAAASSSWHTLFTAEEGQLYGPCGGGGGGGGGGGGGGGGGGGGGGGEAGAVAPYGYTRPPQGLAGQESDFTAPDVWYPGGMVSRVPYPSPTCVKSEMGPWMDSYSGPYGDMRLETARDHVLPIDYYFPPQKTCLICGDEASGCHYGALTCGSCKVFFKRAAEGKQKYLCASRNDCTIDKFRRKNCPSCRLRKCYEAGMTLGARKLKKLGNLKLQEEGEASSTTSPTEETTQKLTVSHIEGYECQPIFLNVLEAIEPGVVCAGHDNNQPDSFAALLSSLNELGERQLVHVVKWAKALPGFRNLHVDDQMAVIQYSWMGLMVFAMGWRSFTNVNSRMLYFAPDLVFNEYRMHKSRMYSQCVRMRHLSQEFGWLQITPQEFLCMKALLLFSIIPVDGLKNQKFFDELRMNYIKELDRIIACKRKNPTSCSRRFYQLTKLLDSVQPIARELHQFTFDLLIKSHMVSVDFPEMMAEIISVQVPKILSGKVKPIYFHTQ
# [25] = Toxicity in BALB/c mouse assessed as diarrhea 50 mg/kg, ip after 7 days; assay type: organism-based; settings: in vivo, 168 h, time 7 day
# [26] = biological target: E3 ubiquitin-protein ligase RNF168 (Homo sapiens, UniProt Q8IYW5); assay: Inhibition of RNF168 activity in human HCT-116 cells assessed as reduction in gamma-H2AX ubiquitination by immunoblotting assay; assay type: cell-based
# HCT-116 [27] = assay: Induction of P62 to RNF168 protein-protein interaction in human HCT-116 cells lysates by co-immunoprecipitation assay; assay type: subcellular
# [28] = Toxicity in BALB/c mouse assessed as diarrhea at 100 mg/kg, ip after 7 days; assay type: organism-based; settings: in vivo, 168 h, time 7 day
# T1 sequence (Q13501 whole entry, the tested form may be a part): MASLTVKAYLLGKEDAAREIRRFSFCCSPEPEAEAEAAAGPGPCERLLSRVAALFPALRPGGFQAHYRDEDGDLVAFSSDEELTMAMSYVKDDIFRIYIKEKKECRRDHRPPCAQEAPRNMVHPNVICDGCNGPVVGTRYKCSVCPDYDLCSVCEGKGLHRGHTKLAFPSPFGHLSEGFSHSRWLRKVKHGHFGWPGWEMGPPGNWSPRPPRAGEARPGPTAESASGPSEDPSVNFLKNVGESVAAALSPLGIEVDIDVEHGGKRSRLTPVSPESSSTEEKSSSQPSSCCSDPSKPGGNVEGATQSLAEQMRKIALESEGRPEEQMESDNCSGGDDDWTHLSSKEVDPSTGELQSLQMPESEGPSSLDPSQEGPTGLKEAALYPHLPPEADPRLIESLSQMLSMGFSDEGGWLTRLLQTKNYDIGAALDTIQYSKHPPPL
# Sequence of E3 ubiquitin-protein ligase RNF168 (Q8IYW5 whole entry): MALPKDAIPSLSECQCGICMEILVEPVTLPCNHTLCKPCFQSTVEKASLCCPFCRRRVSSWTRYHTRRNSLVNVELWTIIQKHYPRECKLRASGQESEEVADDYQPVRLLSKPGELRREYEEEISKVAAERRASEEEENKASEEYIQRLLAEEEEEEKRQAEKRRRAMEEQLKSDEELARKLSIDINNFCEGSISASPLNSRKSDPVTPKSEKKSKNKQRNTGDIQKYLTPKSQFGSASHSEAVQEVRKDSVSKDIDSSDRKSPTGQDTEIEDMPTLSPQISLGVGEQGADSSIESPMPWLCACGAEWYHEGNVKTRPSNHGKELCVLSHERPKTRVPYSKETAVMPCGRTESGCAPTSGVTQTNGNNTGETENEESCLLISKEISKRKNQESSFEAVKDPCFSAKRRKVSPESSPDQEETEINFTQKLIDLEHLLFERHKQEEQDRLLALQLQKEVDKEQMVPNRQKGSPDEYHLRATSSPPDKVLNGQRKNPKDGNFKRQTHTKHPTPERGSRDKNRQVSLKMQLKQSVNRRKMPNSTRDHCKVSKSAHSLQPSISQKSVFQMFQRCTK
structure (smiles),measurement,setting,value
COc1cc(-n2cc(-c3ccc4nc(N)nc(N)c4c3)nn2)cc(OC)c1OC,Activity,Sequestosome-1 [1],Active
same,Activity,HCT-116 [2],21.51%
same,inhibition,U2OS [3],Dde
same,CLH,[4],1.87 mL/min
same,Activity,Bacteria [5],Active
same,Activity,HCT-116 [6],53%
same,Activity,U2OS [7],Active
same,IC50,HepG2,19.6 µM
same,clearance,[8],243 mL/min/kg
same,Activity,HCT-116 [9],18.77%
same,Activity,HCT-116 [10],52.1%
same,Kd,Sequestosome-1 [11],1.49 µM
same,IC50,A-375,1.93 µM
same,Activity,Bacteria [12],Active
same,Activity,[13],Toxic
same,Cmax,[14],39.9 ng/mL
same,Activity,[15],Toxic
same,Activity,[16],Non-Toxic
same,IC50,HeLa,2.48 µM
same,Activity,Sequestosome-1 [17],Active
same,AUC(0-t),[18],1000 ng·h/mL
same,MTD,[19],12.5 mg/kg
same,Activity,HCT-116 [20],30.79%
same,Activity,[21],Non-Toxic
same,IC50 at 72 h,[22],6.98 µM
same,Cmax,[23],26.1 ng/mL
same,inhibition,[24],Active
same,Activity,[25],Toxic
same,inhibition,[26],Active
same,Activity,HCT-116 [27],Active
same,Activity,[28],Toxic
